From patent US20250195427A1, “ANTI-INFLAMMATORY DRUG-ELUTING COMPOSITIONS AND METHODS” (THE REGENTS OF THE UNIVERSITY OF CALIFORNIA, priority 2022, published 2025)
In brackets after ≈: the same amount, converted by molar mass.

Legend:
[1] = Drug loading of mPEG-b-p(HPMAm-Lacn) micelles by HPLC (loaded concentration, encapsulation efficiency, loading capacity); format: physicochemical; details: for final concentration of drug loaded inside MCs: polymer 10 mg/mL, 1 mL MC solution, HPLC; for difference in encapsulation efficiency (EE) % with various polymer/drug ratios: polymer/drug ratios 10:0.25 to 10:2
Method: Drug loaded MCs were formed by self-assembly via a solvent evaporation method. Briefly, 10 mg of copolymers […] dissolved in 1 mL of acetone. Various amounts of drugs (0.25, 0.5, 1 and 2 mg) were then added to the copolymer solution and vortexed until fully mixed. […] The next day, the MC solution was centrifuged at 4,000 rpm at 22° C. for 10 min to remove unencapsulated drugs. LE, PA, and DEX were three drugs of interest. 30 mg/mL of drug stock solutions were prepared in DMSO. Unloaded MCs were prepared with the same procedure without the addition of drugs. The amount of loaded drugs (LE, PA and DEX) in the polymeric MCs was determined by using High Performance Liquid Chromatography (HPLC). Taking LE as an example, after centrifugation of the MC solution, the unencapsulated LE pellet was redissolved in 1 mL of ACN. […] LE dissolved in ACN (concentration from 0.1 mg/ml to 1 mg/ml) was used for calibration. The encapsulation efficiency (EE) and loading capacity (LC) were calculated as follows: […]

[2] = cited from earlier work

final concentration of drug loaded inside MCs ([1]; initially applied drug 0.25 mg) [µg/mL] | final concentration of drug loaded inside MCs ([1]; initially applied drug 2 mg) [µg/mL] | difference in encapsulation efficiency (EE) % with various polymer/drug ratios [1] | SMILES | Log P [2] | solubility in water [2] [µg/mL]
171.7 ± 4.2 | 1154.0 ± 108.6 | No significant difference | CC(=O)OCC(=O)[C@@]1(O)CC[C@H]2[C@@H]3CCC4=CC(=O)C=C[C@]4(C)[C@H]3[C@@H](O)C[C@@]21C [PA, Prednisolone acetate] | – | –
55.7 ± 10.0 | 589.2 ± 75.5 | No significant difference | CCOC(=O)O[C@]1(C(=O)OCCl)CC[C@H]2[C@@H]3CCC4=CC(=O)C=C[C@]4(C)[C@H]3[C@@H](O)C[C@@]21C [LE, Loteprednol etabonate] | 3.08 | 0.5 (≈ 1.07 µM)
